Measurements reported in PMC5841658, “Anti-cancer characteristics and ototoxicity of platinum(II) amine complexes with only one leaving ligand” (PLoS ONE, 2018).

Key:
[1] = system: A549 lung cancer cell line; experiment: MTT cellular viability assay, A549; format: cell-based; settings: 72 hours, ± standard deviation
Protocol: Cell lines were obtained from American Type Culture Collection (ATCC, Manassas, VA). […] Caco-2 (ATCC: HTB-37) colorectal cancer was grown in EMEM with 20% FBS and 1% penicillin/streptomycin. All cell lines were incubated at 37°C in 5% CO2 with passaging every 4–7 days. Cell culture media and supplements were obtained from ATCC, Atlanta Biologicals (Flowery Branch, GA), Mediatech (Tewksbury, MA), Fisher Scientific (Waltham, MA), Gibco (Gaithersburg, MD) and Sigma-Aldrich.
The MTT (3-(4,5-dimethylthiazol-2-yl)-2,5-diphenyltetrazolium bromide) cellular viability assay was performed in all three cancer cell lines and the non-cancer cell line. Following a protocol adapted from, cells were seeded at 5,000 cells per well in 96-well plates and incubated at 37°C in 5% CO2 in F-12K Medium or EMEM with FBS supplementation and 1% penicillin/streptomycin for 24 hours. Then, wells were treated in replicates of six according to a concentration series (500, 50, 5, 0.5, 0.05 μM) of specific platinum complexes for 72 hours. A negative control (media only), positive control (Triton X-100) and series of blanks were simultaneously performed. The MTT assay was run for 2 hours, then well contents were rapidly evacuated out and all wells were treated with MTT solubilization solution [10% Triton X-100 in acidic (0.1N HCl) isopropanol] for 15 minutes before the plates were read using a BioTek Synergy HT microplate plate reader (570 nm and 690 nm absorbance wavelengths). Reagents, cell culture media and supplements were obtained from ATCC, Atlanta Biologicals, Mediatech, Fisher Scientific, Gibco and Sigma-Aldrich.
(§1) GraphPad Prism v6 (La Jolla, CA) was used for all statistical analysis. Nuclear fraction platinum uptake as a total percent of combined nuclear and cytosolic uptake was analyzed using a one-way ANOVA (Brown-Forsyth test; p ≤ 0.05). IC50 values were calculated in Prism using the sigmoidal, 4PL, x is log(concentration) analysis feature or were calculated from Prism derived values using the equation y = mx + b. MTT assay standard deviation values were calculated using ED50plus v1.0 online software. AEP threshold data were analyzed by two-way ANOVA (Dunnett’s multiple comparisons test; p ≤ 0.05) and hair cell quantification data by two-way ANOVA (Tukey’s multiple comparisons test; p ≤ 0.05). AEP temporary threshold shifts (TTS) were calculated by subtracting the mean vehicle threshold for each frequency from each treatment threshold. TTS data were averaged across frequencies for each treatment and were analyzed by one-way ANOVA (Tukey’s multiple comparisons test; p ≤ 0.05).

[2] = system: zebrafish utricle hair cells; experiment: Hair cell quantification, utricle; format: in vivo, Danio rerio; settings: extrastriolar (E1-E3) and striolar (S1-S3) regions, 25 mg/kg i.p., 48 hours
Description: (§2) Zebrafish (Danio rerio) were purchased from a commercial supplier (Segrest Farms, Gibsonton, FL) and maintained in the animal facility of Western Kentucky University according to a protocol approved by the Institutional Animal Care and Use Committee. All zebrafish used in this study were a mix of male and female adult animals at least 6 months of age and were maintained according to standard methods.
Zebrafish were sedated with tricaine methanesulfonate (MS-222, Argent, Redmond, WA), weighed, and then intraperitoneally microinjected with 25 mg/kg body weight of platinum test compound or an equivalent volume of vehicle (0.9% NaCl) control using a 35 gauge syringe operated by a Micro4 microsyringe pump controller (World Precision Instruments, Sarasota, FL). After injection, fish were returned to holding tanks for either 24 or 48 hours and then subjected to hearing tests followed by hair cell quantification analysis. […]
GraphPad Prism v6 (La Jolla, CA) was used for all statistical analysis. Nuclear fraction platinum uptake as a total percent of combined nuclear and cytosolic uptake was analyzed using a one-way ANOVA (Brown-Forsyth test; p ≤ 0.05). IC50 values were calculated in Prism using the sigmoidal, 4PL, x is log(concentration) analysis feature or were calculated from Prism derived values using the equation y = mx + b. […]

[3] = system: zebrafish hearing thresholds; experiment: Auditory evoked potential (AEP) testing in zebrafish inner ear model; format: in vivo, Danio rerio; settings: 25 mg/kg i.p.; for mean (± S.E.) temporary threshold shift (TTS), averaged across frequencies: 48 hours, vehicle threshold subtracted; for AEP hearing threshold, significance of pairwise comparison against cisplatin / AEP hearing threshold, significance of pairwise comparison against vehicle: 48 h
Protocol: as §2
After injection, fish were returned to holding tanks for either 24 or 48 hours and then subjected to hearing tests followed by hair cell quantification analysis.
Auditory evoked potential (AEP) testing was performed on individual fish according to standard protocols. […] After harness placement was complete, three 27 gauge stainless steel electrodes (Rochester Electro-Medical, Inc., Lutz, FL) were inserted approximately 2 mm subdermally to record AEPs. A reference electrode was inserted into the medial dorsal surface of the head, a recording electrode directly over the brainstem and a ground electrode in the tail musculature. Sound stimuli (tone pips) were presented to each fish at 8 frequencies (100, 250, 400, 600, 800, 1000, 1500 and 3000 Hz) and AEP waveforms were collected using a TDT System III physiology apparatus (Tucker-Davis Technologies Inc., Alachua, FL) running SigGen and BioSig software. Auditory stimuli were passed through a P1000 power amplifier (Hafler, Port Coquitlam, BC) and presented with a University Sound UW-30 underwater speaker (Electro-Voice, Fairport, NY). Sound pressure levels were confirmed using a Type 10CT hydrophone (G.R.A.S., Holte, Denmark) placed adjacent to the mesh harness. Auditory thresholds were determined in 5 dB increments by visual inspection of AEP waveforms.
as §1

## [Cl][Pt-2]12[NH2+]CC[NH+]1CC[NH2+]2 (stereo not shown) [[Pt(dien)Cl]^+, Pt(diethylenetriamine)Cl]
[1]
  IC50: 198 ± 4.8 µM
[2]
  effect on utricle hair cell density compared to vehicle: one elevated mean hair cell density count at S2
[3]
  mean (± S.E.) temporary threshold shift (TTS), averaged across frequencies: 12.0 ± 3.0 dB
[3]; 100 Hz
  AEP hearing threshold, significance of pairwise comparison against cisplatin: ns (ns, p > 0.05)
  AEP hearing threshold, significance of pairwise comparison against vehicle: * (* p ≤ 0.05)
[3]; 250 Hz
  AEP hearing threshold, significance of pairwise comparison against cisplatin: ns (ns, p > 0.05)
  AEP hearing threshold, significance of pairwise comparison against vehicle: ns (ns, p > 0.05)
[3]; 400 Hz
  AEP hearing threshold, significance of pairwise comparison against cisplatin: ns (ns, p > 0.05)
  AEP hearing threshold, significance of pairwise comparison against vehicle: **** (**** p ≤ 0.0001)
[3]; 600 Hz
  AEP hearing threshold, significance of pairwise comparison against cisplatin: ns (ns, p > 0.05)
  AEP hearing threshold, significance of pairwise comparison against vehicle: **** (**** p ≤ 0.0001)
[3]; 800 Hz
  AEP hearing threshold, significance of pairwise comparison against cisplatin: ns (ns, p > 0.05)
  AEP hearing threshold, significance of pairwise comparison against vehicle: **** (**** p ≤ 0.0001)
[3]; 1000 Hz
  AEP hearing threshold, significance of pairwise comparison against cisplatin: ns (ns, p > 0.05)
  AEP hearing threshold, significance of pairwise comparison against vehicle: **** (**** p ≤ 0.0001)
[3]; 1500 Hz
  AEP hearing threshold, significance of pairwise comparison against cisplatin: ns (ns, p > 0.05)
  AEP hearing threshold, significance of pairwise comparison against vehicle: ns (ns, p > 0.05)
[3]; 3000 Hz
  AEP hearing threshold, significance of pairwise comparison against cisplatin: ns (ns, p > 0.05)
  AEP hearing threshold, significance of pairwise comparison against vehicle: * (* p ≤ 0.05)

## phenanthriplatin
[3]
  mean (± S.E.) temporary threshold shift (TTS), averaged across frequencies: 13.3 ± 2.9 dB
[3]; listed as phenanthriplatin
  mean (± S.E.) temporary threshold shift (TTS), averaged across frequencies: 13 dB
[3]; 100 Hz
  AEP hearing threshold, significance of pairwise comparison against cisplatin: * (* p ≤ 0.05)
  AEP hearing threshold, significance of pairwise comparison against vehicle: *** (*** p ≤ 0.001)
[3]; 250 Hz
  AEP hearing threshold, significance of pairwise comparison against cisplatin: ns (ns, p > 0.05)
  AEP hearing threshold, significance of pairwise comparison against vehicle: ns (ns, p > 0.05)
[3]; 400 Hz
  AEP hearing threshold, significance of pairwise comparison against cisplatin: ns (ns, p > 0.05)
  AEP hearing threshold, significance of pairwise comparison against vehicle: *** (*** p ≤ 0.001)
[3]; 600 Hz
  AEP hearing threshold, significance of pairwise comparison against cisplatin: ns (ns, p > 0.05)
  AEP hearing threshold, significance of pairwise comparison against vehicle: ** (** p ≤ 0.01)
[3]; 800 Hz
  AEP hearing threshold, significance of pairwise comparison against cisplatin: * (* p ≤ 0.05)
  AEP hearing threshold, significance of pairwise comparison against vehicle: **** (**** p ≤ 0.0001)
[3]; 1000 Hz
  AEP hearing threshold, significance of pairwise comparison against cisplatin: * (* p ≤ 0.05)
  AEP hearing threshold, significance of pairwise comparison against vehicle: **** (**** p ≤ 0.0001)
[3]; 1500 Hz
  AEP hearing threshold, significance of pairwise comparison against cisplatin: ns (ns, p > 0.05)
  AEP hearing threshold, significance of pairwise comparison against vehicle: ns (ns, p > 0.05)
[3]; 3000 Hz
  AEP hearing threshold, significance of pairwise comparison against cisplatin: ** (** p ≤ 0.01)
  AEP hearing threshold, significance of pairwise comparison against vehicle: **** (**** p ≤ 0.0001)
